Results from PMC12718081 (ACS Infectious Diseases, 2025).
Entries after “also recorded” stand apart in the source; their conditions may differ. Read-outs that look alike come from different tables or passages of the source.

Tests used:
S. mansoni schistosomula = assay: Roboworm high-content screening assay on schistosomula (motility and phenotype scores); type: cell-based, Schistosoma mansoni; settings: 72 h
Experimental: All PZQ derivatives were synthesized in the racemic form and evaluated as such. The compounds were initially screened at 10 μM against S. mansoni schistosomula using the Roboworm high-content screening assay , and were declared hits or nonhits based on their effect on parasites’ motility and phenotype scores after 72 h of incubation. As none of the compounds were considered hits at this concentration, we performed a titration from 6.25 to 50 μM (Figure S27).
DMSO was included as a negative control. Compounds were considered hits if both their motility and phenotype scores were lower than −0.35 and −0.15, respectively (region delimited by the dashed lines). In red, PZQ analogues selected for further analysis.
For the collection of schistosomula, B. glabrata snails infected with S. mansoni were shed for 2 h under light at 26 °C. Cercariae were collected, mechanically transformed into schistosomula as previously described.
DMSO (0.625%, v/v) was included as a negative control. Z′ values for the assay were calculated to be 0.542 for phenotype and 0.361 for motility. […]
(§1) Auranofin (AUR) was included at 10 µM as positive control. DMSO was included as a negative control. Compounds were considered hits if both their motility and phenotype scores were lower than -0.35 and -0.15, respectively (region delimited by the […]

[1] = tested on: adult schistosomes (male and female worms); assay: Adult worm ex vivo high-content image-based motility assay; type: cell-based, Schistosoma mansoni
Experimental: Adult schistosomes’ motility was determined using a high-content assay previously developed by our group, , with images analyzed in CellProfiler software. More details are provided in the Supporting Information.
(§2) Adult worm ex-vivo high-content assay
(§3) “Area” and “False Negative Rate” from the MeasureObjectSizeShape and MeasureObjectOverlap modules, respectively. These measurements were then modeled by a multilevel generalized linear statistical model. The effects of the experimental treatments on […]
(§4) The half-maximal inhibitory
(§5) Windows (GraphPad Software, Boston, MA, USA; www.graphpad.com). […]
with DMSO as a negative control.

Sm.TRPMPZQ (wild-type) = Sm.TRPMPZQ (wild-type) (Schistosoma mansoni, UniProt A0A5K4F0X5); assay: Ca2+ reporter (FLIPR) activation assay, wild-type Sm.TRPMPZQ in HEK293 cells; type: cell-based
Sm.TRPMPZQ (wild-type), sequence (A0A5K4F0X5 entry or part of it): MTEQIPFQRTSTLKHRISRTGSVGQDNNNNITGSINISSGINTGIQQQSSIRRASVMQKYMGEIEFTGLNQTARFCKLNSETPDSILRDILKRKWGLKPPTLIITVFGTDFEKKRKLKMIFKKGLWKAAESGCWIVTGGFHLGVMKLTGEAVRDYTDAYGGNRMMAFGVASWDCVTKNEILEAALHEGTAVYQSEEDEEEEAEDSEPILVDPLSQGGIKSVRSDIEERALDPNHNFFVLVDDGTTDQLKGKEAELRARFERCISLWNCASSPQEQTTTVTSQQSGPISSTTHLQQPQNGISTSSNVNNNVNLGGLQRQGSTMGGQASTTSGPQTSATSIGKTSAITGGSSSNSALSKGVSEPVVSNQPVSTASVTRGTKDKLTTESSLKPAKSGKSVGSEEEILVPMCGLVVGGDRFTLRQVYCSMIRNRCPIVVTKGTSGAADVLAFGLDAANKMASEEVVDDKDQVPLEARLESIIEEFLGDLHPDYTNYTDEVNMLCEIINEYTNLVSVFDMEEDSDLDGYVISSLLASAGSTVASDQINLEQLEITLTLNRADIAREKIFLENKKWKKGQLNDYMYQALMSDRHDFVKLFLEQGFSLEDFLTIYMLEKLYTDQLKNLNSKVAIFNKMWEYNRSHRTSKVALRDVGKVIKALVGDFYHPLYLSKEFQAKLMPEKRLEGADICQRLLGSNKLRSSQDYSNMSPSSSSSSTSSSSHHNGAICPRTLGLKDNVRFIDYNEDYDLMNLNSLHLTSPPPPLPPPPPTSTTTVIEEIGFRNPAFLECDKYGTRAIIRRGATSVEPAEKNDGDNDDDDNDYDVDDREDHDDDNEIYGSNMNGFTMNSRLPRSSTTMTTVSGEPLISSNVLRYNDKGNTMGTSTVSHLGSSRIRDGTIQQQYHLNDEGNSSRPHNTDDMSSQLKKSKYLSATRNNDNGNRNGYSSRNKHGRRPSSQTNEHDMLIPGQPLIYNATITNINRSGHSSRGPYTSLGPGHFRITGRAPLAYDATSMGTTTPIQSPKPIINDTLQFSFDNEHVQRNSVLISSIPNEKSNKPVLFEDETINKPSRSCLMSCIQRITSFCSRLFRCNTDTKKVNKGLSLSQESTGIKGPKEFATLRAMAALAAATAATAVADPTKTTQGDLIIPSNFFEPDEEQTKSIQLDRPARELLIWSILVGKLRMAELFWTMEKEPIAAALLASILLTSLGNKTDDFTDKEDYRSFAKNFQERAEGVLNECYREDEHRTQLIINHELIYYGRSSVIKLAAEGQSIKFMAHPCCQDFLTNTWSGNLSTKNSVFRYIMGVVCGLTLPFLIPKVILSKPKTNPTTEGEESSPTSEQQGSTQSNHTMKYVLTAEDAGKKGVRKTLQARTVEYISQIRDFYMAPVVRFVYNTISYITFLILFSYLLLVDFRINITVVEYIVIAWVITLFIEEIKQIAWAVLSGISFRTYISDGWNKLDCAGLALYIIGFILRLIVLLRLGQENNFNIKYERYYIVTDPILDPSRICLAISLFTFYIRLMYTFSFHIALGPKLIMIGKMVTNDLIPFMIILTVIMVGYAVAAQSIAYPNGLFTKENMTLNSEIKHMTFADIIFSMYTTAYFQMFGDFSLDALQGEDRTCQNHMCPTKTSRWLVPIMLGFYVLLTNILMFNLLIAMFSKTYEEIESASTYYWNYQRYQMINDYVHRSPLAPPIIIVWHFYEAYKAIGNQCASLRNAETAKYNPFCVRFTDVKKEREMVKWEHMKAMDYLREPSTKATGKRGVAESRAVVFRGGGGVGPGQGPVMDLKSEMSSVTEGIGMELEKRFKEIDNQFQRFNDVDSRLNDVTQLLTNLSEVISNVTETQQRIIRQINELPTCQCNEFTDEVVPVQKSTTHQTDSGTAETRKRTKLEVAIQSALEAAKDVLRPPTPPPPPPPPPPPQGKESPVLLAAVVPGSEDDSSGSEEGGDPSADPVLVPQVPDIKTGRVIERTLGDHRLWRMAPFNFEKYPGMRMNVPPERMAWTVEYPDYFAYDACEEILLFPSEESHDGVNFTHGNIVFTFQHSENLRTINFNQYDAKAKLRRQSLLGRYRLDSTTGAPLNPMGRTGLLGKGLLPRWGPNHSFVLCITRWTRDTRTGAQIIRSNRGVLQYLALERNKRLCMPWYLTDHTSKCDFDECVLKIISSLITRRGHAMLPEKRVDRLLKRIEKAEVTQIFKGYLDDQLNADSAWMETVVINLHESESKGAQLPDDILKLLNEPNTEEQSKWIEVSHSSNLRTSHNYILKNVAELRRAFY
Experimental: The Ca^2+ reporter assay was performed using a Fluorescence Imaging Plate Reader (FLIPR) system, as described in the Supporting Information. […]
as §4, §5
(§6) with DMSO as a negative control. […]
(§7) reader. […] The fluorescence
(§8) Untransfected HEK293 cells were used as a control.
(§9) 10% fetal bovine serum (FBS). […]
(§10) atmosphere containing 5% CO₂. Following incubation, the growth medium was removed and […]
(§11) buffer containing 2.5 mM probenecid in HBSS (with Ca²⁺ and Mg²⁺), 20 mM HEPES, 0.3% BSA (Sigma, A7030), and 0.03% L-ascorbic acid (Sigma). Cells were incubated for 40 minutes at 37 °C and subsequently for 20 minutes at room temperature. […]
prepared in assay buffer without dye and probenecid and dispensed into separate flat-bottom 384-well plates. Calcium flux measurements were performed at room temperature using a […]
(§12) instrument (Molecular Devices). Baseline fluorescence was recorded for 20 seconds, followed by the addition of 5 µL of each drug solution, after which fluorescence was measured continuously for 250 seconds. […]

Sm.TRPMPZQ = assay: Ca2+ reporter assay in antagonist mode (block of PZQ activation of Sm.TRPMPZQ); type: cell-based, Schistosoma mansoni; settings: preincubation 1 nM-100 μM for 10 min, data not shown
Experimental: (§13) The Ca^2+ reporter assay was performed using a Fluorescence Imaging Plate Reader (FLIPR) system, as described in the Supporting Information.
as §2, §3, §4, §5, §6, §7, §8, §9, §10
buffer containing 2.5 mM probenecid in HBSS (with Ca²⁺ and Mg²⁺), 20 mM HEPES, 0.3% BSA (Sigma, A7030), and 0.03% L-ascorbic acid (Sigma). Cells were incubated for 40 minutes at 37 °C and subsequently for 20 minutes at room temperature. A total of seven PZQ derivatives were tested, using racemic PZQ included as a positive control on each assay plate. Drug dilutions were prepared in assay buffer without dye and probenecid and dispensed into separate flat-bottom 384-well plates. Calcium flux measurements were performed at room temperature using a […]
as §12
as §1, with “schistosomula after 72h of incubation using the Roboworm high-content screening assay. Auranofin” for “Auranofin”
(1 picture or pasted object on this page, not shown here)

Eg.TRPMPZQ = Eg.TRPMPZQ (Echinococcus granulosus, UniProt W6UVV9); assay: cell-based; settings: HEK293, Ca2+ reporter, mean ± standard deviation; read-out: Bmax, Eg.TRPMPZQ activation
Eg.TRPMPZQ, sequence (W6UVV9 entry or part of it): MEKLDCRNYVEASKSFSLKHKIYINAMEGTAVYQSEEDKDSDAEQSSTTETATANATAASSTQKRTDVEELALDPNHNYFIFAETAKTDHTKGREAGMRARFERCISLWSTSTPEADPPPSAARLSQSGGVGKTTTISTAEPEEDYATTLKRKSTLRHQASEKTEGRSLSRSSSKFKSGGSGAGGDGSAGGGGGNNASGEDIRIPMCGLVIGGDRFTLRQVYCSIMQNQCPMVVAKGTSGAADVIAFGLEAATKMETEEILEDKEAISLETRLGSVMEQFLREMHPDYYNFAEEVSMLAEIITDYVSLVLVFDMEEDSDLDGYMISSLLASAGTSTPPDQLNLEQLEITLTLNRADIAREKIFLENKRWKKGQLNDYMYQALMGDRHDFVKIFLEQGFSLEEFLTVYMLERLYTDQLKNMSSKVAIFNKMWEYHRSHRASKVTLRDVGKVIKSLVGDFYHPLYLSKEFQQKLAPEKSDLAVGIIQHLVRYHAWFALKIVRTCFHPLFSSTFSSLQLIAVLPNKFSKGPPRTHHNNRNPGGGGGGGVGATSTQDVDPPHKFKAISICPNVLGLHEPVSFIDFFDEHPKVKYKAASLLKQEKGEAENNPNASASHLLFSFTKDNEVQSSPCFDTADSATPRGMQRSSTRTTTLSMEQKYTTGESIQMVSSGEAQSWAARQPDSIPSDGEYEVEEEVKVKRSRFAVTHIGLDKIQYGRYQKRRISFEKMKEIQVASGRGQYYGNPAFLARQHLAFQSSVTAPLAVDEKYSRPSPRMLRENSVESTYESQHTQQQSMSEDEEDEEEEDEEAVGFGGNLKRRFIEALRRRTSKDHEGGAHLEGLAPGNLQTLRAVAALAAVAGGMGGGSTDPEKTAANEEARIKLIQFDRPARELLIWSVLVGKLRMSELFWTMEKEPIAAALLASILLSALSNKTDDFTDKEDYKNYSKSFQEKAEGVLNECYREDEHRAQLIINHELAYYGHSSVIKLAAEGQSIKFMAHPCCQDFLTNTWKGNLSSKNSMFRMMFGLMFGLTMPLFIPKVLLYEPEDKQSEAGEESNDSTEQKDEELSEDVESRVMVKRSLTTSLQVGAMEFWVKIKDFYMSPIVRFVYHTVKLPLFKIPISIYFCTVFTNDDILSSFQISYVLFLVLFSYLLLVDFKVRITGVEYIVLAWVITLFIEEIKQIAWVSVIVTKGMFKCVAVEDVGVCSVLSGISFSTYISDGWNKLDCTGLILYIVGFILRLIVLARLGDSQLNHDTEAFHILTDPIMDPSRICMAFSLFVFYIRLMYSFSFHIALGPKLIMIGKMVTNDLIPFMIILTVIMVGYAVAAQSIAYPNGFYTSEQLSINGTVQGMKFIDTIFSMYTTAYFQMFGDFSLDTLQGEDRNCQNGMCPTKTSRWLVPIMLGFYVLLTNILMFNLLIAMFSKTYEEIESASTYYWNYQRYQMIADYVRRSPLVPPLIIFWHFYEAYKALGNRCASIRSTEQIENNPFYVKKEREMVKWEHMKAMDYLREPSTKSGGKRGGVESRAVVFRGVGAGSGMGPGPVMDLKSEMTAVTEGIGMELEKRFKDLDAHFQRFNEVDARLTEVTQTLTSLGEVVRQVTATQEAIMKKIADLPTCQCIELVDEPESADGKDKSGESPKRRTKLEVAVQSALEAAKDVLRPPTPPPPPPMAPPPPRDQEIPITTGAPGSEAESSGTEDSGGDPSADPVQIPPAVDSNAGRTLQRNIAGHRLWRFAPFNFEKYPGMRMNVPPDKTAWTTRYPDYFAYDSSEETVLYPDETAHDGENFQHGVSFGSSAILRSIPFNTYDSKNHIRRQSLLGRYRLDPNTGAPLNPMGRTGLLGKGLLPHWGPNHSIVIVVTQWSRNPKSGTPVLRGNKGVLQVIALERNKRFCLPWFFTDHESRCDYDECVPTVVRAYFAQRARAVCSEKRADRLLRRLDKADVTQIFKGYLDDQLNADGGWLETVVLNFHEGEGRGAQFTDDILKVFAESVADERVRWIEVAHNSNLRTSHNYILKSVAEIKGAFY

Sm.TRPMPZQ L1515A mutant = assay: Ca2+ reporter activation assay, Sm.TRPMPZQ point mutant L1515A; type: cell-based, Schistosoma mansoni; settings: 100 μM
Experimental: This trend likely indicates a similar binding mode.
The colored cells represent the range of EC50 values for each compound based on their ability to activate the channel.
as §13, §2, §3, §4, §5, §6, §7, §8, §9, §10, §11, §12

[2] = tested on: juvenile schistosomes (21 days p.i.); assay: XTT juvenile viability assay; type: cell-based, Schistosoma mansoni; settings: 48 h
Fh.TRPMPZQ = tested on: Fh.TRPMPZQ; design: method as in number not given; settings: background statement; ref number not given; cited from earlier work
juvenile schistosomes = assay: Microscopy analysis of juvenile morphology and motility (viability score 0-3); settings: 72 h
S. mansoni = tested on: S. mansoni; design: method as in numbers not given; settings: ref numbers not given, cited from earlier work
Sm.TRPMMCLZ = tested on: Sm.TRPMMCLZ; design: method as in number not given; settings: background statement; ref number not given; cited from earlier work

SMILES: O=C(C1CCCCC1)N1CC(=O)N2CCc3ccc(-n4cc(C5(O)CCCCC5)nn4)cc3C2C1 (stereo not drawn) [Compound 5d]
- hit classification (motility and phenotype scores) (S. mansoni schistosomula; 50 μM, hit if motility < -0.35 and phenotype < -0.15): inactive
- activity against adult worms ([1]; data not shown): inactive
- Bmax, wild-type Sm.TRPMPZQ activation (Sm.TRPMPZQ (wild-type)): No activity
- EC50 for wild-type Sm.TRPMPZQ activation (Sm.TRPMPZQ (wild-type); 0.001 to 100 μM): failed to activate; also recorded: No activity
- block of PZQ activation of Sm.TRPMPZQ (antagonist mode) (Sm.TRPMPZQ): failed to impact subsequent responses to PZQ
- Emax (Eg.TRPMPZQ): 94 ± 4.08%
- activation of Sm.TRPMPZQ mutant form L1515A (Sm.TRPMPZQ L1515A mutant): activated

SMILES: O=C(C1CCCCC1)N1CC(=O)N2CCc3ccccc3C2C1 (stereo not drawn) [PZQ, Praziquantel, reference compound]
- hit classification (motility and phenotype scores) (S. mansoni schistosomula; 6.25 μM): not classified as a hit
- EC50 ([1]; Schistosoma mansoni, 0 h, male adult worms, 0 h (immediately after addition), single experiment or geometric mean, read-out: Male worm motility inhibition (EC50)): 280 nM
- EC50 ([1]; Schistosoma mansoni, 0 h, male, 0 h, individual experiments, read-out: Male worm motility inhibition (EC50), values of independent experiments): 300 nM
- EC50 ([1]; Schistosoma mansoni, 24 h, male adult worms, 24 h, single experiment or geometric mean, read-out: Male worm motility inhibition (EC50)): 250 nM
- EC50 ([1]; Schistosoma mansoni, 24 h, male, 24 h, individual experiments, read-out: Male worm motility inhibition (EC50), values of independent experiments): 220 nM
- EC50 ([1]; Schistosoma mansoni, 48 h, male adult worms, 48 h, single experiment or geometric mean, read-out: Male worm motility inhibition (EC50)): 250 nM
- EC50 ([1]; Schistosoma mansoni, 48 h, male, 48 h, individual experiments, read-out: Male worm motility inhibition (EC50), values of independent experiments): 270 nM
- EC50 ([1]; Schistosoma mansoni, 72 h, male adult worms, 72 h, single experiment or geometric mean, read-out: Male worm motility inhibition (EC50)): 160 nM
- EC50 ([1]; Schistosoma mansoni, 72 h, male, 72 h, individual experiments, read-out: Male worm motility inhibition (EC50), values of independent experiments): 160 nM
- EC50 ([1]; Schistosoma mansoni, male, 0-72 h, read-out: EC50 against male adult worms (motility), span over incubation times): ~200 nM
- EC50 ([1]; male, 48 h, individual experiments, listed as PZQ (1), read-out: Male worm motility inhibition (EC50), values of independent experiments): 240 nM
- EC50 ([1]; male, 72 h, individual experiments, listed as PZQ (1), read-out: Male worm motility inhibition (EC50), values of independent experiments): 170 nM
- parasite metabolic activity compared to the DMSO control group (XTT) ([2]; 100 μM): significantly decreased
- viability at 100 µM ([2]; Schistosoma mansoni, mean ± SD, read-out: juvenile worm viability (XTT, % residual viability)): 71.5%
- activation of Fh.TRPMPZQ (Fh.TRPMPZQ): does not activate
- number of juvenile worms with viability score 0 (juvenile schistosomes; 10 μM, Table S1): 56
- number of juvenile worms with viability score 1 (juvenile schistosomes; 10 μM, Table S1): 12
- number of juvenile worms with viability score 2 (juvenile schistosomes; 10 μM, Table S1): 27
- number of juvenile worms with viability score 3 (juvenile schistosomes; 10 μM, Table S1): 14
- viability at 10 µM (juvenile schistosomes; Schistosoma mansoni, read-out: Relative frequency of viability score 3): 12.8%
- in vitro potency against adult worms (S. mansoni; S. mansoni adults): 160 to 750 nM
- in vitro potency against schistosomula (S. mansoni; S. mansoni schistosomula): 1300 to 4800 nM
- activation of Sm.TRPMMCLZ (Sm.TRPMMCLZ): does not activate
